Measurements from ChEMBL document CHEMBL1131036, “Structure-based design, synthesis, and biological evaluation of irreversible human rhinovirus 3C protease inhibitors. 1. Michael acceptor structure-activity studies” (J Med Chem, 1998).
pEC50: −log10 of the molar value.

What was measured:
[1] = target: T1, Human rhinovirus A protease (Human rhinovirus sp.) (UniProt Q4U254); test: Catalytic rate constant (Kobs/[I]) evaluated against human rhinovirus (HRV) serotype 14 3C Protease (3CP); details: Human rhinovirus B (HRV-14)
T1 sequence (whole entry): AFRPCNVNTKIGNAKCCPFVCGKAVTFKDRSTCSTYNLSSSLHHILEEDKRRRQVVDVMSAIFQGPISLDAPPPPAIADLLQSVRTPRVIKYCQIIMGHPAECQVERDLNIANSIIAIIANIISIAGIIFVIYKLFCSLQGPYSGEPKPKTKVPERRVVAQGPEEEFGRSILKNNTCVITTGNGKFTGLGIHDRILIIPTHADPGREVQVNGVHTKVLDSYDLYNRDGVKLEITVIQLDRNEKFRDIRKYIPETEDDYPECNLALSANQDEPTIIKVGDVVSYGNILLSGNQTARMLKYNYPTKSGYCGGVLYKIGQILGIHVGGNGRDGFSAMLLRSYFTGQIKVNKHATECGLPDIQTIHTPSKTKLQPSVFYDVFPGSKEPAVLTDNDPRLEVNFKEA

HeLa [2] = test: Formazan production in HRV-14 virus infected cells; type: functional, cell-based; details: Homo sapiens
HeLa [3] = test: Concentration of compound that decreased the percentage of formazan production in treated HRV-14 virus infected cells to that produced in uninfected cells; type: functional; details: Homo sapiens

Row | Compound | K obs / 1 [1] [M⁻¹ s⁻¹] | pEC50 (HeLa [2]) | CC50 (HeLa [3]) [µM]
1 | COC(=O)N1CC/C(=C\[C@H](CCC(N)=O)NC(=O)[C@H](Cc2ccccc2)NC(=O)[C@H](CC(C)C)NC(=O)OCc2ccccc2)C1=O | 8400 | 4.55 | > 100
2 | CO/N=C/C=C/[C@H](CCC(N)=O)NC(=O)[C@H](Cc1ccccc1)NC(=O)[C@H](CC(C)C)NC(=O)OCc1ccccc1 | 0 | 4.00 | > 320
3 | CCOP(=O)(/C=C/[C@H](CCC(N)=O)NC(=O)[C@H](Cc1ccccc1)NC(=O)[C@H](CC(C)C)NC(=O)OCc1ccccc1)OCC | 0 | < 3.49 | > 320
4 | CC(C)C[C@H](NC(=O)OCc1ccccc1)C(=O)N[C@@H](Cc1ccccc1)C(=O)N[C@H](/C=C/C(=O)OC1CCCC1)CCC(N)=O | 14600 | 6.25 | > 100
5 | CC(C)C[C@H](NC(=O)OCc1ccccc1)C(=O)N[C@@H](Cc1ccccc1)C(=O)N[C@H](/C=C/C(=O)N1CCCO1)CCC(N)=O | 14000 | 4.35 | > 320
6 | CC(C)C[C@H](NC(=O)OCc1ccccc1)C(=O)N[C@@H](Cc1ccccc1)C(=O)N[C@H](/C=C/c1cocn1)CCC(N)=O | 0 | < 4.00 | > 100
7 | CC(C)C[C@H](NC(=O)OCc1ccccc1)C(=O)N[C@@H](Cc1ccccc1)C(=O)N[C@H](/C=C/C(=O)c1ccc([N+](=O)[O-])cc1)CCC(N)=O | 310000 | 4.49 | 32
8 | COC(=O)/C=C\[C@H](CCC(N)=O)NC(=O)[C@H](Cc1ccccc1)NC(=O)[C@H](CC(C)C)NC(=O)OCc1ccccc1 | 2400 | 5.49 | > 320
9 | CC(C)C[C@H](NC(=O)OCc1ccccc1)C(=O)N[C@@H](Cc1ccccc1)C(=O)N[C@H](/C=C/C(=O)OCc1ccccc1)CCC(N)=O | 39400 | 5.49 | > 100
10 | CON1CC/C(=C\[C@H](CCC(N)=O)NC(=O)[C@H](Cc2ccccc2)NC(=O)[C@H](CC(C)C)NC(=O)OCc2ccccc2)C1=O | 800 | 4.74 | > 100
11 | CC(C)C[C@H](NC(=O)OCc1ccccc1)C(=O)N[C@@H](Cc1ccccc1)C(=O)N[C@H](/C=C/C(=O)NC1CCCC1)CCC(N)=O | 250 | < 4.00 | > 320
12 | CC(C)C[C@H](NC(=O)OCc1ccccc1)C(=O)N[C@@H](Cc1ccccc1)C(=O)N[C@H](/C=C/C(=O)N1CCCCO1)CCC(N)=O | 19000 | 4.80 | 100
13 | COc1ccc(C(=O)/C=C/[C@H](CCC(N)=O)NC(=O)[C@H](Cc2ccccc2)NC(=O)[C@H](CC(C)C)NC(=O)OCc2ccccc2)cc1 | 150000 | 4.66 | 100
14 | CCNC(=O)/C=C/[C@H](CCC(N)=O)NC(=O)[C@H](Cc1ccccc1)NC(=O)[C@H](CC(C)C)NC(=O)OCc1ccccc1 | 350 | < 3.49 | > 320
15 | CC(C)C[C@H](NC(=O)OCc1ccccc1)C(=O)N[C@@H](Cc1ccccc1)C(=O)N[C@H](/C=C/C(=O)N1CCc2cc(F)ccc21)CCC(N)=O | 5400 | 4.96 | > 320
16 | CC(C)C[C@H](NC(=O)OCc1ccccc1)C(=O)N[C@@H](Cc1ccccc1)C(=O)N[C@H](/C=C/C#N)CCC(N)=O | 0 | 4.74 | > 320
17 | CC(C)C[C@H](NC(=O)OCc1ccccc1)C(=O)N[C@@H](Cc1ccccc1)C(=O)N[C@H](/C=C/C(=O)C(C)(C)C)CCC(N)=O | 15000 | 5.77 | 5.6
18 | CSc1cccc2c1N(C(=O)/C=C/[C@H](CCC(N)=O)NC(=O)[C@H](Cc1ccccc1)NC(=O)[C@H](CC(C)C)NC(=O)OCc1ccccc1)CC2 | 300 |  | 
19 | CC(C)C[C@H](NC(=O)OCc1ccccc1)C(=O)N[C@@H](Cc1ccccc1)C(=O)N[C@H](/C=C1\CCCOC1=O)CCC(N)=O |  | 4.80 | > 100
